From patent US6414000B1, “Substituted diphenyl oxazolin derivatives with insecticidal effect” (Bayer Aktiengesellschaft, priority 1997, dated 2002)
Marks after values point to notes of the source that are not given here.

Assays:
[1] = logP, n-octanol/water partition coefficient by reversed phase HPLC; format: physicochemical; conditions: reversed phase HPLC using H2O/CH3CN; for logP (A isomer): A isomer (possible geometric isomer); for logP (B isomer): B isomer (possible geometric isomer)
[2] = system: caterpillars of the diamond back moth (Plutella xylostella); experiment: Plutella Test; format: in vivo; conditions: active compound concentration 0.000032%, after 7 days, dipped cabbage leaves
Protocol: (§1) Solvent: 7 parts by weight of dimethylformamide
(§2) Emulsifier: 1 part by weight of alkylaryl polyglycol ether
(§3) To produce a suitable preparation of active compound, 1 part by weight of active compound is mixed with the stated amount of solvent and the stated amount of emulsifier, and the concentrate is diluted with water to the desired concentration.
Cabbage leaves (Brassica oleracea) are treated by being dipped into the active compound preparation of the desired concentration and are infested with caterpillars of the diamond back moth (Plutella xylostella), while the leaves are still moist.
(§4) After the desired period of time, the activity in % is determined. 100% means that all caterpillars have been killed; 0% means that none of the caterpillars have been killed.

[3] = system: caterpillars of the owlet moth (Spodoptera frugiperda); experiment: Spodoptera frugiperda Test; format: in vivo; conditions: active compound concentration 0.0001%, after 7 days, dipped cabbage leaves
Protocol: Spodoptera frugiperda Test
as §1, §2, §3
Cabbage leaves (Brassica oleracea) are treated by being dipped into the active compound preparation of the desired concentration and populated with caterpillars of the owlet moth (Spodoptera frugiperda) while the leaves are still moist.
as §4

[4] = system: greenhouse red spider mite (Tetranychus urticae); experiment: Tetranychus Test (OP resistant/spray treatment); format: in vivo; conditions: active compound concentration 0.000032%, after 14 days, sprayed bean plants
Protocol: Tetranychus Test (OP resistant/spray treatment)
Solvent: 3 parts by weight of dimethylformamide
as §2, §3
Bean plants (Phaseolus vulgaris) which are heavily infested by all stages of the greenhouse red spider mite (Tetranychus urticae) are sprayed with an active compound preparation of the desired concentration.
After the desired period of time, the activity in % is determined. 100% means that all the spider mites have been killed; 0% means that none of the spider mites have been killed.

[5] = system: caterpillars of the owlet moth (Spodoptera exigua); experiment: Spodoptera exigua Test; format: in vivo; conditions: active compound concentration 0.000032%, after 6 days, dipped cabbage leaves
Protocol: as §1, §2, §3
Cabbage leaves (Brassica oleracea) are treated by being dipped into the active compound preparation of the desired concentration and populated with caterpillars of the owlet moth (Spodoptera exigua), while the leaves are still moist.
as §4

[6] = system: caterpillars of the cotton bollworm (Heliothis armigera); experiment: Heliothis armigera Test; format: in vivo; conditions: active compound concentration 0.00016%, after 6 days, dipped soy shoots
Protocol: as §1, §2, §3
Soy shoots (Glycine max) are treated by being dipped into the active compound preparation of the desired concentration and are populated with caterpillars of the cotton bollworm (Heliothis armigera), while the leaves are still moist.
After the desired period of time, the activity in % is determined. 100% means that all the caterpillars have been killed; 0% means that none of the caterpillars have been killed.

[7] = system: larvae of the mustard beetle (Phaedon cochleariae); experiment: Phaedon Larvae Test; format: in vivo; conditions: after 7 days, dipped cabbage leaves
Protocol: as §1, §2, §3
After the desired period of time, the kill in % is determined. 100% means that all the beetle larvae have been killed; 0% means that none of the beetle larvae have been killed.

Lucilia cuprina larvae = experiment: Blowfly Larvae Test/development-inhibitory Action; format: in vivo; conditions: active compound concentration 100 ppm
Protocol: Blowfly Larvae Test/development-inhibitory Action
Test animals: Lucilia cuprina larvae
Solvent: Dimethyl sulphoxide
20 m of active compound are dissolved in 1 ml of dimethyl sulphoxide, and lower concentrations are prepared by dilution with distilled H2O .
About 20 Lucilia cuprina larvae are placed in a test tube containing about 1 cm^3 of horsemeat and 0.5 ml of the active compound preparation to be tested. The activity of the active compound preparation is determined after 24 hours and 48 hours. The test tubes are transferred into beakers whose bottom is covered with sand. After a further 2 days, the test tubes are removed and the pupae are counted.
The activity of the active compound preparation is judged by the number of flies which have hatched after 1.5 times the development period of an untreated control. 100% means that no flies have hatched; 0% means that all flies have hatched normally.

[8] = active compound concentration 0.01%

Q: For `C#CC(C)Oc1ccc(-c2ccc(C3COC(c4ccccc4Cl)=N3)cc2)cc1` (centres unmarked) [Example 37], which logP [1] is on record?
A: The logP was 4.49.

Q: With `CCON=CC(C)(C)Oc1ccc(-c2ccc(C3COC(c4c(F)cccc4F)=N3)cc2)cc1` (centres unmarked) [Example 53] as the compound, how does the logP [1] read?
A: The logP was 5.00.

Q: With `CC(O)C(C)Oc1ccc(-c2ccc(C3COC(c4ccccc4Br)=N3)cc2)cc1` (centres unmarked) [Example 91] as the compound, how does the logP [1] read?
A: Its logP is 3.74.

Q: For `CCON=CCOc1ccc(-c2ccc(C3COC(c4c(F)cccc4Cl)=N3)cc2)cc1` (centres unmarked) [Example 113], which logP [1] is on record?
A: Its logP is 4.65.

Q: Which logP [1] does the source give for `CCON=CCOc1ccc(-c2ccc(C3COC(c4ccccc4Cl)=N3)cc2)cc1Cl` (centres unmarked) [Example 117] here?
A: The logP was 5.08.

Q: For `Fc1cccc(F)c1C1=NC(c2ccc(-c3ccc(OCc4ccc(C(F)(F)F)cc4)cc3)cc2)CO1` (centres unmarked) [Example 1, 2-(2,6-difluorophenyl)-4-[4′-(4″-trifluoromethylbenzyl-oxy)-biphenyl-4-yl]-1,3-oxazoline], which kill [2] is on record?
A: The kill was 85%.

Q: And the kill [3]?
A: The kill was 100%.

Q: And the kill [4]?
A: The kill was 98%.

Q: And the kill [5]?
A: The kill was 80%.

Q: What about the kill [6] of the same compound?
A: Its kill is 100%.

Q: And the kill [7, 8]?
A: The kill was 100%.

Q: For `CC(=O)C(C)Oc1ccc(-c2ccc(C3COC(c4ccccc4Br)=N3)cc2)cc1` (centres unmarked) [Example 68], which logP [1] is on record?
A: Its logP is 4.13.

Q: For `CC(=NOCC(C)C)C(C)Oc1ccc(-c2ccc(C3COC(c4c(F)cccc4F)=N3)cc2)cc1` (mixture of isomers) [Example 51], which “logP (A isomer)” value [1] is on record?
A: The value was 5.93.

Q: And the “logP (B isomer)” value [1]?
A: Its value is 5.79.

Q: Which kill [3] does the source give for `CC(=NOC(C)C)C(C)(C)Oc1ccc(-c2ccc(C3COC(c4c(F)cccc4Cl)=N3)cc2)cc1` (centres unmarked) [Example 4] here?
A: Its kill is 100%.

Q: What about the kill ([7]; active compound concentration 0.00001%) of the same compound?
A: The kill was 100%.

Q: What about the logP [1] of the same compound?
A: Its logP is 6.30.

Q: For `CON=CCOc1ccc(-c2ccc(C3COC(c4ccccc4Cl)=N3)cc2)cc1Cl` (centres unmarked) [Example 116], which logP [1] is on record?
A: The logP was 4.72.

Q: With `Cc1cc(-c2ccc(C3COC(c4c(F)cccc4OCC(F)(F)F)=N3)cc2)ccc1OCC(F)(F)F` (centres unmarked) [Example 120] as the compound, how does the logP [1] read?
A: Its logP is 4.91.

Q: With `CC(C)(C=O)Oc1ccc(-c2ccc(C3COC(c4c(F)cccc4F)=N3)cc2)cc1` (centres unmarked) [Example 102] as the compound, how does the logP [1] read?
A: The logP was 4.08.

Q: With `C#CC(C)Oc1ccc(-c2ccc(C3COC(c4c(F)cccc4F)=N3)cc2)cc1` (centres unmarked) [Example 36] as the compound, how does the logP [1] read?
A: Its logP is 4.15.

Q: With `ClC1(Cl)CC1COc1ccc(-c2ccc(C3COC(c4ccccc4I)=N3)cc2)cc1` (centres unmarked) [Example 22] as the compound, how does the logP [1] read?
A: The logP was 5.43.

Q: With `CON=C(C)C(C)Oc1ccc(-c2ccc(C3COC(c4ccccc4Br)=N3)cc2)cc1` (mixture of isomers) [Example 92] as the compound, how does the “logP (A isomer)” value [1] read?
A: Its value is 5.08.

Q: And the “logP (B isomer)” value [1]?
A: The value was 5.18.

Q: For `CCCCON=C(C)C(C)Oc1ccc(-c2ccc(C3COC(c4c(F)cccc4Cl)=N3)cc2)cc1` (mixture of isomers) [Example 49], which “logP (A isomer)” value [1] is on record?
A: Its value is 6.23.

Q: What about the “logP (B isomer)” value [1] of the same compound?
A: The value was 6.09.

Q: What does the source list for `CCC(C)ON=C(C)COc1ccc(-c2ccc(C3COC(c4c(F)cccc4F)=N3)cc2)cc1` (mixture of isomers) [Example 56]?
A: logP (A isomer) [1]: 5.61; logP (B isomer) [1]: 5.54

Q: Which logP [1] does the source give for `CCON=CCOc1ccc(-c2ccc(C3COC(c4c(F)cccc4F)=N3)cc2)cc1Cl` (centres unmarked) [Example 115] here?
A: The logP was 4.71.

Q: With `CCON=CCOc1ccc(-c2ccc(C3COC(c4c(F)cccc4F)=N3)cc2)cc1` (mixture of isomers) [Example 16] as the compound, how does the “logP (A isomer)” value [1] read?
A: Its value is 4.35 (A isomer)*.

Q: And the “logP (B isomer)” value [1]?
A: Its value is 4.53 (B isomer)*.

Q: With `CON=CCOc1ccc(-c2ccc(C3COC(c4c(F)cccc4Cl)=N3)cc2)cc1` (centres unmarked) [Example 112] as the compound, how does the logP [1] read?
A: The logP was 4.27.

Q: What does the source list for `CCCCON=C(C)COc1ccc(-c2ccc(C3COC(c4c(F)cccc4F)=N3)cc2)cc1` (mixture of isomers) [Example 55]?
A: logP (A isomer) [1]: 5.58; logP (B isomer) [1]: 5.51

Q: Which results are given for `CCCCON=C(C)C(C)Oc1ccc(-c2ccc(C3COC(c4c(F)cccc4F)=N3)cc2)cc1Cl` (mixture of isomers) [Example 63]?
A: logP (A isomer) [1]: 6.37; logP (B isomer) [1]: 6.22

Q: Which logP [1] does the source give for `CC(C)Oc1ccc(-c2ccc(C3COC(c4ccccc4F)=N3)cc2)cc1` (centres unmarked) [Example 107] here?
A: Its logP is 4.65.

Q: For `CCCCON=C(C)C(C)Oc1ccc(-c2ccc(C3COC(c4c(F)cccc4F)=N3)cc2)cc1` (mixture of isomers) [Example 52], which “logP (A isomer)” value [1] is on record?
A: The value was 5.94.

Q: What about the “logP (B isomer)” value [1] of the same compound?
A: Its value is 5.80.

Q: Which “logP (A isomer)” value [1] does the source give for `CCON=C(COc1ccc(-c2ccc(C3COC(c4c(F)cccc4F)=N3)cc2)cc1)C(C)(C)C=C(Cl)Cl` (mixture of isomers) [Example 42] here?
A: The value was 6.48.

Q: What about the “logP (B isomer)” value [1] of the same compound?
A: Its value is 6.37.

Q: For `CON=CCOc1ccc(-c2ccc(C3COC(c4c(F)cccc4F)=N3)cc2)cc1Cl` (centres unmarked) [Example 114], which logP [1] is on record?
A: The logP was 4.33.

Q: What does the source list for `CCC(C)ON=C(C)COc1ccc(-c2ccc(C3COC(c4c(F)cccc4Cl)=N3)cc2)cc1` (mixture of isomers) [Example 3]?
A: kill [2]: 100%; kill [3]: 100%; kill [6]: 100%; kill [7, 8]: 100%; logP (A isomer) [1]: 5.90 (A isomer)*; logP (B isomer) [1]: 5.81 (B isomer)*

Q: For `CC(=O)C(C)Oc1ccc(-c2ccc(C3COC(c4ccccc4F)=N3)cc2)cc1` (centres unmarked) [Example 100], which logP [1] is on record?
A: The logP was 3.79.

Q: For `CCCCON=C(C)C(C)Oc1ccc(-c2ccc(C3COC(c4ccccc4Cl)=N3)cc2)cc1Cl` (mixture of isomers) [Example 61], which “logP (A isomer)” value [1] is on record?
A: The value was 6.84.

Q: What about the “logP (B isomer)” value [1] of the same compound?
A: The value was 6.67.

Q: Which “logP (A isomer)” value [1] does the source give for `CC(COc1ccc(-c2ccc(C3COC(c4c(F)cccc4Cl)=N3)cc2)cc1)=NOCC(C)C` (mixture of isomers) [Example 54] here?
A: The value was 5.85.

Q: And the “logP (B isomer)” value [1]?
A: The value was 5.76.

Q: With `CON=CC(C)(C)Oc1ccc(-c2ccc(C3COC(c4c(F)cccc4F)=N3)cc2)cc1` (centres unmarked) [Example 57] as the compound, how does the logP [1] read?
A: Its logP is 4.62.

Q: Which logP [1] does the source give for `Cc1cc(-c2ccc(C3COC(c4c(F)cccc4F)=N3)cc2)ccc1OCC(F)(F)F` (centres unmarked) [Example 119] here?
A: The logP was 4.80.

Q: Which “logP (A isomer)” value [1] does the source give for `CON=CCOc1ccc(-c2ccc(C3COC(c4c(F)cccc4F)=N3)cc2)cc1` (mixture of isomers) [Example 8] here?
A: Its value is 3.97 (A isomer)*.

Q: What about the “logP (B isomer)” value [1] of the same compound?
A: The value was 4.14 (B isomer)*.

Q: For `CC(C)COc1ccc(-c2ccc(C3COC(c4ccccc4F)=N3)cc2)cc1` (centres unmarked) [Example 108], which logP [1] is on record?
A: The logP was 5.34.

Q: Which “activity (development-inhibitory action, flies not hatched)” value (Lucilia cuprina larvae) does the source give for `CC(C)Oc1ccc(-c2ccc(C3COC(c4ccccc4Br)=N3)cc2)cc1` (centres unmarked) [Example 5] here?
A: Its value is 100%.
